Patent publication US20200030368A1, “A POLYMER NETWORK, METHOD FOR PRODUCTION, AND USES THEREOF” (priority 2016, published 2020)

Columns and labels:
[1] = system: S. aureus; experiment: Resistance study by serial passaging at sub-MIC; assay type: cell-based; conditions: 14 passages at sub-MIC (MIC/2)
Description: (§1) Two control antibiotics norfloxacin and colistin were chosen for S. aureus and for A. baumannii, respectively. In case of norfloxacin and colistin also, the initial MIC values were determined against respective bacteria. After the initial MIC experiment, serial passaging was initiated by transferring bacterial suspension grown at the sub-MIC of the polymer/antibiotics and was subjected to another MIC assay. […] The process was repeated for 14 passages for both S. aureus and A. baumannii respectively. The fold increase in MIC for test polymer to the control antibiotics was plotted against the number of passages to determine the propensity of bacterial resistance development.

[2] = system: A. baumannii; experiment: Resistance study by serial passaging at sub-MIC; assay type: cell-based; conditions: 14 passages at sub-MIC (MIC/2)
Description: as §1

Compound	change in MIC on serial passaging [1]	change in MIC on serial passaging [2]
CCn1cc(C(=O)O)c(=O)c2cc(F)c(N3CCNCC3)cc21 [norfloxacin]	gradual increase in MIC	–
colistin	–	gradual increase in MIC
